This is an account of results in ChEMBL document CHEMBL1201862, “PubChem BioAssay data set” (2004).

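Results reflect a 48-hour exposure of cells in 96-well plates to compound at five concentrations. GI50 marks 50% less growth.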 The source made the active and inactive calls. Cut-off read from the data, not from the text of the source: active = GI50 up to about 1.1 µM and inactive = higher. A value given as a limit tells only on which side of the number the result lay.

Holding throughout (experiment): NCI tumour cell line growth inhibition, 48 h
The subject of assay [1] is A549.
Assay [2] has as its system ACHN.
Assay [3] concerns HCT-15.
Assay [4] concerns HL-60.
Assay [5] has as its system HOP-62.
Assay [6] concerns MOLT-4.
In assay [7] the test system is NCI-H226.
In assay [8] the test system is NCI-H460.
Assay [9] has as its system NCI/ADR-RES.
For assay [10], the system named is PC-3.
Assay [11] relates to RXF 393.
Assay [12] deals with SF-268.
The subject of assay [13] is SF-539.
Assay [14] concerns SK-MEL-28.
The subject of assay [15] is SN12C.
Assay [16] relates to SNB-19.
The subject of assay [17] is SNB-75.
In assay [18] the test system is T47D.
In assay [19] the test system is UO-31.
For assay [20], the system named is OVCAR-3.

Take `N#Cc1nc(-c2cc([N+](=O)[O-])cc([N+](=O)[O-])c2)oc1N`: the GI50 in assay [1] is > 10 µM (inactive); in [2], > 10 µM (inactive); in [3], more than 10 µM; in [4], > 10 µM (inactive); in assay [5] it was > 10 µM (inactive); in assay [6], > 10 µM (inactive). Further, the GI50 in assay [7], in [8], in assay [9], in assay [10], in assay [11] and in assay [12] was > 10 µM (inactive) each time. The GI50 in assay [13], in assay [14], in [15], in [16], in assay [17] and in [18] was > 10 µM (inactive) each time. Further, the GI50 in assay [19] is 8.93 µM (inactive).

For the compound `COc1ccc(-c2oc3cc(OC)c(OC)c(O)c3c(=O)c2OC)cc1`, the GI50 in assay [1] was > 100 µM (inactive); in [2], 33.3 µM (inactive); in assay [3], 40.5 µM; in assay [4], 29.4 µM (inactive); in [5] it was 30.3 µM (inactive); in assay [6] it was > 100 µM (inactive). Further, the GI50 in assay [7] was 48.9 µM (inactive); in assay [8], > 100 µM (inactive); in assay [9], 80.5 µM (inactive); in [10], 39.8 µM (inactive); in assay [11] it was 22.7 µM (inactive); in assay [12], 24.5 µM (inactive). Besides, the GI50 in [13] was 30.9 µM (inactive); in assay [14], > 100 µM (inactive); in [15], 80.4 µM (inactive); in assay [16], 28.4 µM (inactive); in assay [17], 15.4 µM (inactive); in assay [18], 28.4 µM (inactive). Also, the GI50 in assay [19] is > 100 µM (inactive).

For the compound `O=C(Nc1nnc(-c2c(Cl)c(Cl)c(Cl)c(Cl)c2-c2nc3cc(C(=O)c4ccccc4)ccc3[nH]2)o1)c1ccccc1`, the GI50 is 14.9 µM (inactive) in [1]; 19.5 µM (inactive) in assay [2]; 9.98 µM in [3]; 11.4 µM (inactive) in [4]; 10.4 µM (inactive) in assay [5]; 13.7 µM (inactive) in [6]. The GI50 in [7] is 16.7 µM (inactive); in assay [9], 14 µM (inactive); in assay [20], 15 µM (inactive); in assay [10] it was 13 µM (inactive); in assay [11] it was 12.3 µM (inactive); in assay [13], 11.5 µM (inactive). Besides, the GI50 in assay [14] is 12.1 µM (inactive); in assay [15] it was 15.3 µM (inactive); in assay [16] it was 15.2 µM (inactive); in assay [17], 15.1 µM (inactive); in assay [18], 16.4 µM (inactive); in [19], 31.8 µM (inactive).

Regarding `CCOc1cc(CCNC)c2c(ccc3ccc(OC)c(O)c32)c1OC`, the GI50 in assay [1] was 19.3 µM (inactive); in assay [2], 13.6 µM (inactive); in [3], 17.5 µM; in [4] it was 15 µM (inactive); in assay [5], 20.3 µM (inactive); in [6], 5.82 µM (inactive). Further, the GI50 was 17.9 µM (inactive) in [7]; 14.1 µM (inactive) in [8]; 19.2 µM (inactive) in [9]; 14.5 µM (inactive) in assay [20]; 13.2 µM (inactive) in assay [10]; 15.7 µM (inactive) in assay [11]. Moreover, the GI50 in [12] is 18 µM (inactive); in assay [14], 17.9 µM (inactive); in [15] it was 16.1 µM (inactive); in assay [16], 16.1 µM (inactive); in [17], 16 µM (inactive); in [18], 21.7 µM (inactive). Besides, the GI50 in assay [19] is 15.6 µM (inactive).
